Data on five molecules can be found in patent publication US8778412B2, “Methods for increasing the stabilization of hypoxia inducible factor-1 alpha” (Aerpio Therapeutics Inc., priority 2009, dated 2014).

The nature of data set [1]: Solubility of pharmaceutically acceptable salts in water. The note with it: distilled deionized water, sonicated 20 min, under 25° C., HPLC. In kind it is physicochemical. How it is done:
The formulator can determine the solubility of the pharmaceutically acceptable salts of the disclosed inhibitors by any method desirable. The following is a non-limiting example of a procedure for evaluating the solubility of a salt of a disclosed inhibitor. A suspension of tert-butyl-{[1-(4-chlorobenzyl)-3-hydroxy-2-oxo-1,2-dihydropyridin-4-yl]methyl}-piperazine-1-carboxylate methanesulfonate (26.6 mg) in distilled deionized water (3.0 mL) is sonicated for 20 min with water bath temperature under 25° C. The suspension is filtered to remove any insoluble salt. The clear filtrate solution (200 μL) is diluted with distilled deionized water (800 μL) and subjected to HPLC analysis. The following are results for the pharmaceutically acceptable salts outlined in Table VII above.

A further data set deals with HIFPH2 (EGLN1) (Homo sapiens (Human), UniProt Q9GZT9). The data set is described as follows: EGLN-1 Activity Assay (MALDI-TOF MS). The note with it: recombinant human EGLN-1-179/426, HIF-1α peptide 556-574. In kind it is biochemical. The protocol: The enzyme, quantity predetermined to hydroxylate 20% of substrate in 20 minutes, is added to start the reaction. Where inhibitors are used, compounds are prepared in dimethyl sulfoxide at 10-fold final assay concentration. After 20 minutes at room temperature, the reaction is stopped by transferring 10 μL of reaction mixture to 50 μL of a mass spectrometry matrix solution (α-cyano-4-hydroxycinnamic acid, 5 mg/mL in 50% acetonitrile/0.1% TFA, 5 mM NH4PO4). Two microliters of the mixture is spotted onto a MALDI-TOF MS target plate for analysis with an Applied Biosystems (Foster City, Calif.) 4700 Proteomics Analyzer MALDI-TOF MS equipped with a Nd:YAG laser (355 nm, 3 ns pulse width, 200 Hz repetition rate). Hydroxylated peptide product is identified from substrate by the gain of 16 Da. Data defined as percent conversion of substrate to product is analyzed in GraphPad Prism 4 to calculate IC50 values.

Data set [2] relates to phosphoglycerate kinase (PGK) expression. Put plainly: PGK expression in murine embryonic fibroblasts. In kind it is cell-based. The following applies: 1 μM, 10 μM, vs wild type control (FIG. 12). How it is done: FIG. 11 depicts the up regulation of phosphoglycerate kinase (PGK) expression in wild type murine embryonic fibroblasts as a result of treatment with a compound disclosed in Table VIII at dosages of 1 μM (E), 10 μM (F), and 50 μM (G) vs. wild type control (H) and the lack of up regulation of PGK expression in HIF-1 knock out cells as a result of treatment with a compound disclosed in Table VIII at dosages of 1 μM (A), 10 μM (B), and 50 μM (C) and HIF-1 knock out control (D). Both cell types were treated for 7 hours.

Molecules are shown by their SMILES.

Sequence of HIFPH2 (EGLN1) (Q9GZT9 179-426): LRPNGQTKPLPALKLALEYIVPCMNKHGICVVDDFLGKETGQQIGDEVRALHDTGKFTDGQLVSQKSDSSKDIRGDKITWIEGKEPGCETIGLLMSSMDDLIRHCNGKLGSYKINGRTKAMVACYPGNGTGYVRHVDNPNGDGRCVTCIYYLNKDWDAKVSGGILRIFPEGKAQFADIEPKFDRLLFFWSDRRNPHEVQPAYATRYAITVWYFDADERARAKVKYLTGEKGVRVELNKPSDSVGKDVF

As for `CC(C)(C)OC(=O)N1CCN(Cc2ccn(Cc3ccc(Cl)cc3)c(=O)c2O)CC1` [Compound A41], the Solubility (in general, the concentration that dissolves in the medium under given conditions) in data set [1] is ~1 µg/mL.
`CC(C)(C)OC(=O)N1CCN(Cc2ccn(Cc3ccc(Cl)cc3)c(=O)c2O)CC1.CS(=O)(=O)O` [methanesulfonate, tert-butyl-{[1-(4-chlorobenzyl)-3-hydroxy-2-oxo-1,2-dihydropyridin-4-yl]methyl}-piperazine-1-carboxylate methanesulfonate]: the “Solubility” value in data set [1] is 16600 µg/mL.
Regarding `O=c1c(O)c(CNCc2ccccc2)ccn1Cc1ccc(Cl)cc1` [Compound C1, 1-(4-chlorobenzyl)-3-hydroxy-4-[(4-benzylamino)methyl]pyridin-2(1H)-one], at HIFPH2 (EGLN1), the IC50 (as a rule, the concentration that inhibits the measured activity by half) worked out at 12 µM.
Turning to `O=c1c(O)c(CN2CCN(Cc3ccccc3)CC2)ccn1Cc1ccccc1` [Compound B9, 1-benzyl-3-hydroxy-4-[(4-benzylpiperazin-1-yl)methyl]pyridin-2(1H)-one], at HIFPH2 (EGLN1), the IC50 is 17 µM.
Regarding `O=c1c(O)cccn1Cc1cccc(Cl)c1` [Compound F2, 1-(3-chlorobenzyl)-3-hydroxypyridin-2(1H)-one], in data set [2], the “PGK expression in wild type murine embryonic fibroblasts” value is reported as “up regulation”.
